Test results as given in patent US20260015350A1, “AZAQUINAZOLINE PAN-KRAS INHIBITORS” (Mirati Therapeutics, Inc., priority 2022, published 2026).

How the values were obtained:
KRas^Q61H = target: T1, KRas^Q61H (Homo sapiens, UniProt P01116, Q61H); experiment: KRas binding assay (TR-FRET tracer displacement), KRas Q61H; conditions: TR-FRET tracer displacement, KRas Q61H
T1 construct: Biotinylated KRas (corresponding to amino acids 1-169, produced at Accelegan Inc.); biotin (biotinylated); purchased Accelegan Inc
T1 sequence (P01116 1-169 isoform P01116-2 Q61H): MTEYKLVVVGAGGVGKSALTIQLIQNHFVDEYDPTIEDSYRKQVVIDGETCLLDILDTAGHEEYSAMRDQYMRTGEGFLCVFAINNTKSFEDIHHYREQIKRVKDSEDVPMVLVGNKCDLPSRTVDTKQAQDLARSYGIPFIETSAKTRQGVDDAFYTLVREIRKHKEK

KRas^G13D = target: T2, KRas^G13D (Homo sapiens, UniProt P01116, G13D); experiment: KRas binding assay (TR-FRET tracer displacement), KRas G13D; conditions: TR-FRET tracer displacement, KRas G13D
T2 construct: Biotinylated KRas (corresponding to amino acids 1-169, produced at Accelegan Inc.); biotin (biotinylated); purchased Accelegan Inc
T2 sequence (P01116 1-169 isoform P01116-2 G13D): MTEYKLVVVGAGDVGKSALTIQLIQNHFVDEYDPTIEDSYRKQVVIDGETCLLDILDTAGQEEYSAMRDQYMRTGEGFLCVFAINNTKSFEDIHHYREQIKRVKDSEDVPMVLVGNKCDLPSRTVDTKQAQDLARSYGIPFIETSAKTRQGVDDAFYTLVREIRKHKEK

[1] = tested on: KRas-mediated phosphorylation of ERK in AsPC-1 cells; experiment: Inhibition of KRas-mediated phosphorylation of ERK (Cisbio HTRF pERK), AsPC-1 cells; format: cell-based; conditions: Homo sapiens; for IC50: ASPC1, AsPC-1 cells, HTRF pERK; for inhibition at 0.1 µM: ASPC1, 3 h, single point, 100 nM compound, 3 hrs, AsPC-1 cells
Outline: (§1)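 A cell-based HTRF pERK assay: ten-point, threefold titrations beginning at 10 uM were applied for 3 hrs, with 0.2 uM Trametinib wells as the minimum control. Cells were lysed cold, and lysate was incubated with the antibody pair for 2 hrs before reading.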

KRas^G12C = target: T3, KRas^G12C (Homo sapiens, UniProt P01116, G12C); experiment: KRas binding assay (TR-FRET tracer displacement), KRas G12C; conditions: TR-FRET tracer displacement, KRas G12C
T3 construct: Biotinylated KRas (corresponding to amino acids 1-169, produced at Accelegan Inc.); biotin (biotinylated); purchased Accelegan Inc
T3 sequence (P01116 1-169 isoform P01116-2 G12C): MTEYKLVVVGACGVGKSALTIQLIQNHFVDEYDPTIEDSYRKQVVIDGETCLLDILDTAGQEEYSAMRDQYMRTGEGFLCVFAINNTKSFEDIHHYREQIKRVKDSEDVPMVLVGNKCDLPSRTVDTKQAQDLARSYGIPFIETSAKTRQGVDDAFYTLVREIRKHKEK

KRas^G12R = target: T4, KRas^G12R (Homo sapiens, UniProt P01116, G12R); experiment: KRas binding assay (TR-FRET tracer displacement), KRas G12R
T4 construct: Biotinylated KRas (corresponding to amino acids 1-169, produced at Accelegan Inc.); biotin (biotinylated); purchased Accelegan Inc
T4 sequence (P01116 1-169 isoform P01116-2 G12R): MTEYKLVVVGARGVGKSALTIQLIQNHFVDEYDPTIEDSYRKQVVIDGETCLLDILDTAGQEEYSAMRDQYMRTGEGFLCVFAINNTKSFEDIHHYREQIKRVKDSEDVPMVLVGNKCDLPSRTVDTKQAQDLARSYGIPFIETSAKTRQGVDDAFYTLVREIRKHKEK

[2] = tested on: KRas-mediated phosphorylation of ERK in H727 cells; experiment: Inhibition of KRas-mediated phosphorylation of ERK (Cisbio HTRF pERK), H727 cells; format: cell-based; conditions: Homo sapiens; for IC50: NCI-H727, H727 cells, HTRF pERK; for inhibition at 0.1 µM: NCI-H727, 3 h, single point, 100 nM compound, 3 hrs, H727 cells
Outline: as §1

KRas^G12A = target: T5, KRas^G12A (Homo sapiens, UniProt P01116, G12A); experiment: KRas binding assay (TR-FRET tracer displacement), KRas G12A; conditions: TR-FRET tracer displacement, KRas G12A
T5 construct: Biotinylated KRas (corresponding to amino acids 1-169, produced at Accelegan Inc.); biotin (biotinylated); purchased Accelegan Inc
T5 sequence (P01116 1-169 isoform P01116-2 G12A): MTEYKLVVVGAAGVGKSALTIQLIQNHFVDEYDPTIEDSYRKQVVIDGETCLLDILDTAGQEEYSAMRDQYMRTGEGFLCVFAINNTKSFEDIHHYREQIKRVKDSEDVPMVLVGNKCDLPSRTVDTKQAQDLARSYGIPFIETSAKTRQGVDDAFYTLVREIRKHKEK

KRas^WT = target: T6, KRas^WT (Homo sapiens, UniProt P01116); experiment: KRas binding assay (TR-FRET tracer displacement), KRas WT; conditions: TR-FRET tracer displacement, KRas WT
T6 construct: Biotinylated KRas (corresponding to amino acids 1-169, produced at Accelegan Inc.); biotin (biotinylated); purchased Accelegan Inc
T6 sequence (P01116 1-169 isoform P01116-2): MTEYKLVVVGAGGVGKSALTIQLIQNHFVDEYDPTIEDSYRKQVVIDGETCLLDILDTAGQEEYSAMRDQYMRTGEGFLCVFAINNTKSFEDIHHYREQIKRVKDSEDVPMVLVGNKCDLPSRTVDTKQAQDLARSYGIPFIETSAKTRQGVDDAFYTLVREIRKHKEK

KRas^G12D = target: T7, KRas^G12D (Homo sapiens, UniProt P01116, G12D); experiment: KRas binding assay (TR-FRET tracer displacement), KRas G12D
T7 construct: Biotinylated KRas (corresponding to amino acids 1-169, produced at Accelegan Inc.); biotin (biotinylated); purchased Accelegan Inc
T7 sequence (P01116 1-169 isoform P01116-2 G12D): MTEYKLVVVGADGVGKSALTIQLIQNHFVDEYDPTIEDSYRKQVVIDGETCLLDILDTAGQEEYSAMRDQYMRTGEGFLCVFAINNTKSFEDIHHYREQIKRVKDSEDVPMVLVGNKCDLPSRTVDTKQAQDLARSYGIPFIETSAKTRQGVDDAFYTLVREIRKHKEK

KRas^G12V = target: T8, KRas^G12V (Homo sapiens, UniProt P01116, G12V); experiment: KRas binding assay (TR-FRET tracer displacement), KRas G12V
T8 construct: Biotinylated KRas (corresponding to amino acids 1-169, produced at Accelegan Inc.); biotin (biotinylated); purchased Accelegan Inc
T8 sequence (P01116 1-169 isoform P01116-2 G12V): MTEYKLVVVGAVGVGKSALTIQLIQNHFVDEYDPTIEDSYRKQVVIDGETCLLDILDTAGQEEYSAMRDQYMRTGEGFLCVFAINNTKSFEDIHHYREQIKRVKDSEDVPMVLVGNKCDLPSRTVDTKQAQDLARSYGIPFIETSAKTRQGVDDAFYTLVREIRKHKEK

KRas^G12S = target: T9, KRas^G12S (Homo sapiens, UniProt P01116, G12S); experiment: KRas binding assay (TR-FRET tracer displacement), KRas G12S; conditions: TR-FRET tracer displacement, KRas G12S
T9 construct: Biotinylated KRas (corresponding to amino acids 1-169, produced at Accelegan Inc.); biotin (biotinylated); purchased Accelegan Inc
T9 sequence (P01116 1-169 isoform P01116-2 G12S): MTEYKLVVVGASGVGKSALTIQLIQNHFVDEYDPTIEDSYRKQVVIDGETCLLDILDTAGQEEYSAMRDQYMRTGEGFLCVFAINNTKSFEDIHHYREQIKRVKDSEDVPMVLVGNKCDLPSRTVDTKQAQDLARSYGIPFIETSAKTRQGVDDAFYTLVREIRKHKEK

Row | SMILES | IC50 (KRas^Q61H) [nM] | IC50 (KRas^G13D) [nM] | IC50 [1] [nM] | IC50 (KRas^G12C) [nM] | IC50 (KRas^G12R) [nM] | IC50 [2] [nM] | IC50 (KRas^G12A) [nM] | IC50 (KRas^WT) [nM] | IC50 (KRas^G12D) [nM] | IC50 (KRas^G12V) [nM] | IC50 (KRas^G12S) [nM] | inhibition at 0.1 µM [1] [%] | inhibition at 0.1 µM [2] [%]
1 | O=C1NCC2(CCCN(c3nc(OCC45CCCN4CCC5)nc4c(F)c(-c5c6ccccc6cc6[nH]ncc56)ncc34)C2)N1 (stereo not drawn) [Example 756, 7-(7-(1H-benzo[f]indazol-4-yl)-8-fluoro-2-((hexahydro-1H-pyrrolizin-7a-yl)methoxy)pyrido[4,3-d]pyrimidin-4-yl)-1,3,7-triazaspiro[4.5]decan-2-one] | 13 | 13 | > 10000 | 12 | 17 | > 10000 | 14 | 13 | 11 | 10 | 13 | – | –
2 | Oc1cc(-c2ncc3c(N4C[C@@H]5C[C@H](C4)[C@H](O)C5)nc(OC[C@@]45CCCN4C[C@H](F)C5)nc3c2F)c2ccccc2c1C(F)(F)F [Example 782, (1R,5R,6R)-3-(8-fluoro-2-(((2R,7aS)-2-fluorohexahydro-1H-pyrrolizin-7a-yl)methoxy)-7-(3-hydroxy-4-(trifluoromethyl)naphthalen-1-yl)pyrido[4,3-d]pyrimidin-4-yl)-3-azabicyclo[3.2.1]octan-6-ol] | 4050 | 2550 | – | 2780 | 3740 | – | 4370 | 4220 | 4650 | 2040 | 2570 | 5 | -11
3 | Cc1c(O)cc(-c2ncc3c(N4C[C@@H]5C[C@H](C4)[C@H](O)C5)nc(OC[C@@]45CCCN4C[C@H](F)C5)nc3c2F)c2ccccc12 [Example 790, (1R,5R,6R)-3-(8-fluoro-2-(((2R,7aS)-2-fluorohexahydro-1H-pyrrolizin-7a-yl)methoxy)-7-(3-hydroxy-4-methylnaphthalen-1-yl)pyrido[4,3-d]pyrimidin-4-yl)-3-azabicyclo[3.2.1]octan-6-ol] | 11000 | 7770 | – | 9220 | 5650 | – | 8020 | 10600 | 11700 | 3740 | 5660 | 9 | 15
4 | Cc1cc2[nH]ncc2c(-c2ncc3c(N4CC5C(=O)NC(=O)C5C4)nc(OCC45CCCN4CCC5)nc3c2F)c1C (stereo not drawn) [Example 726, 5-(7-(5,6-dimethyl-1H-indazol-4-yl)-8-fluoro-2-((hexahydro-1H-pyrrolizin-7a-yl)methoxy)pyrido[4,3-d]pyrimidin-4-yl)tetrahydropyrrolo[3,4-c]pyrrole-1,3(2H,3aH)-dione] | 177 | 138 | > 10000 | 208 | 344 | > 10000 | 242 | 145 | 58 | 131 | 68 | – | –
5 | O=C1NC(=O)C2(CCCN(c3nc(OCC45CCCN4CCC5)nc4c(F)c(-c5c6ccccc6cc6[nH]ncc56)ncc34)C2)N1 (stereo not drawn) [Example 755, 7-(7-(1H-benzo[f]indazol-4-yl)-8-fluoro-2-((hexahydro-1H-pyrrolizin-7a-yl)methoxy)pyrido[4,3-d]pyrimidin-4-yl)-1,3,7-triazaspiro[4.5]decane-2,4-dione] | 9 | 11 | > 10000 | 11 | 9 | > 10000 | 14 | 13 | 16 | 11 | 11 | – | –
6 | CC1(O)COCCN(c2nc(OCC34CCCN3CCC4)nc3c(F)c(-c4cc(O)cc(Cl)c4C4CC4)ncc23)C1 (racemic) [Example 740, rac-(R)-4-(7-(3-chloro-2-cyclopropyl-5-hydroxyphenyl)-8-fluoro-2-((tetrahydro-1H-pyrrolizin-7a(5H)-yl)methoxy)pyrido[4,3-d]pyrimidin-4-yl)-6-methyl-1,4-oxazepan-6-ol] | 6 | 8 | 2630 | 7 | 11 | 3160 | 10 | 9 | 4 | 5 | 9 | – | –
7 | Cc1cc2[nH]ncc2c(-c2ncc3c(N4CCC[C@]5(C4)NC(=O)NC5=O)nc(OC[C@@]45CCCN4C[C@H](F)C5)nc3c2F)c1C [Example 731, (5R)-7-(7-(5,6-dimethyl-1H-indazol-4-yl)-8-fluoro-2-(((2R,7aS)-2-fluorohexahydro-1H-pyrrolizin-7a-yl)methoxy)pyrido[4,3-d]pyrimidin-4-yl)-1,3,7-triazaspiro[4.5]decane-2,4-dione] | 13 | 13 | > 10000 | 11 | 10 | > 10000 | 13 | 12 | 15 | 8 | 12 | – | –
8 | Oc1cc(Cl)c(C2CC2)c(-c2ncc3c(N4CCC[C@]5(C4)C[C@@H](O)C5)nc(OCC45CCCN4CCC5)nc3c2F)c1 [Example 743, (2r,4s)-6-(7-(3-chloro-2-cyclopropyl-5-hydroxyphenyl)-8-fluoro-2-((tetrahydro-1H-pyrrolizin-7a(5H)-yl)methoxy)pyrido[4,3-d]pyrimidin-4-yl)-6-azaspiro[3.5]nonan-2-ol] | 7 | 9 | 3690 | 6 | 20 | 1100 | 8 | 9 | 8 | 3 | 8 | – | –
9 | Cc1cc2[nH]ncc2c(-c2ncc3c(N4CCCC5(CNC(=O)N5)C4)nc(OCC45CCCN4CCC5)nc3c2F)c1C (stereo not drawn) [Example 729, 7-(7-(5,6-dimethyl-1H-indazol-4-yl)-8-fluoro-2-((hexahydro-1H-pyrrolizin-7a-yl)methoxy)pyrido[4,3-d]pyrimidin-4-yl)-1,3,7-triazaspiro[4.5]decan-2-one] | 53 | 46 | > 10000 | 40 | 61 | > 10000 | 48 | 45 | 26 | 36 | 40 | – | –
10 | Oc1cc(Cl)c(C2CC2)c(-c2ncc3c(N4C[C@H]5C[C@@H](C4)[C@H](O)C5)nc(OCC45CCCN4CCC5)nc3c2F)c1 [Example 738, (1S,5S,6R)-3-(7-(3-chloro-2-cyclopropyl-5-hydroxyphenyl)-8-fluoro-2-((tetrahydro-1H-pyrrolizin-7a(5H)-yl)methoxy)pyrido[4,3-d]pyrimidin-4-yl)-3-azabicyclo[3.2.1]octan-6-ol] | 9 | 10 | 5960 | 9 | 2 | 1510 | 11 | 11 | 17 | 3 | 9 | – | –
11 | CCc1cccc2cc3[nH]ncc3c(-c3ncc4c(N5CCCC6(CC(=O)N6)C5)nc(OC[C@@]56CCCN5C[C@H](F)C6)nc4c3F)c12 (stereo partly drawn) [Example 771, 6-(7-(5-ethyl-1H-benzo[f]indazol-4-yl)-8-fluoro-2-(((2R,7aS)-2-fluorohexahydro-1H-pyrrolizin-7a-yl)methoxy)pyrido[4,3-d]pyrimidin-4-yl)-1,6-diazaspiro[3.5]nonan-2-one] | 7 | 11 | 1370 | 8 | 4 | 897 | 10 | 12 | 5 | 4 | 9 | – | –
12 | Cc1cc2[nH]ncc2c(-c2ncc3c(N4CCC[C@]5(C4)NC(=O)NC5=O)nc(OCC4(CN(C)C)CC4)nc3c2F)c1C [Example 732, (5R)-7-(7-(5,6-dimethyl-1H-indazol-4-yl)-2-((1-((dimethylamino)methyl)cyclopropyl)methoxy)-8-fluoropyrido[4,3-d]pyrimidin-4-yl)-1,3,7-triazaspiro[4.5]decane-2,4-dione] | 79 | 60 | > 10000 | 43 | 47 | > 10000 | 61 | 50 | 113 | 31 | 63 | – | –
